According to ChEMBL document CHEMBL5465560, “Selectivity Literature for EUbOPEN Chemogenomic Library” (2024):

Key:
[1] = molecular target: Death-associated protein kinase 1 (Homo sapiens, UniProt P53355); assay: Selectivity interaction (KinomeScan (DiscoverX)) EUB0000229b DAPK1; conditions: at 10 µM
[2] = molecular target: T1, Beta-adrenergic receptor kinase 1 (Homo sapiens) (UniProt P25098); assay: Selectivity interaction (KinomeScan (DiscoverX)) EUB0001079a ADRBK1; conditions: at 1 µM
T1 sequence (whole entry): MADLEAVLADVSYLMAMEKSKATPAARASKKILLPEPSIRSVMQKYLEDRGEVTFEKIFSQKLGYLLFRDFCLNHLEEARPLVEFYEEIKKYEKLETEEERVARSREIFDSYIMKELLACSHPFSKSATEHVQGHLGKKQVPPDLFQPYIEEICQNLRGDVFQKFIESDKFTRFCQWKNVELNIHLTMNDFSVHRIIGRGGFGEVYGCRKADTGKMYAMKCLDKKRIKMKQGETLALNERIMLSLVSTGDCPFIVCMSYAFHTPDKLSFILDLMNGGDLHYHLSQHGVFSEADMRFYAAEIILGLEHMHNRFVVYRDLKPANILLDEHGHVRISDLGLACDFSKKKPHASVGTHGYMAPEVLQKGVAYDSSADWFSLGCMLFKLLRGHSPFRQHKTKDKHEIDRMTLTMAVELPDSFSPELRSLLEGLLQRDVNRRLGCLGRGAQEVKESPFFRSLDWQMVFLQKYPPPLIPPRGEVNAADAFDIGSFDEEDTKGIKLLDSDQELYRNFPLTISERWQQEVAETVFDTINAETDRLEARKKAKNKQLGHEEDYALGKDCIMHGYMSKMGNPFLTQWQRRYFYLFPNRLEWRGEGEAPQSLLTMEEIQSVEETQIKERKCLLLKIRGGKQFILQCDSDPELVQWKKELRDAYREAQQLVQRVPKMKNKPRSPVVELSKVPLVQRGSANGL

[3] = molecular target: Serine/threonine-protein kinase MARK2 (Homo sapiens) (UniProt Q7KZI7); assay: Selectivity interaction (KinomeScan (DiscoverX)) EUB0001079a MARK2; conditions: at 1 µM
[4] = molecular target: T2, Phosphatidylinositol 5-phosphate 4-kinase type-2 gamma (Homo sapiens) (UniProt Q8TBX8); assay: Selectivity interaction (ActivX KiNativ screen (kinase selectivity in THP-1 cell lysates)) EUB0000639a PIP4K2C; format: subcellular; conditions: lysate
T2 sequence (whole entry): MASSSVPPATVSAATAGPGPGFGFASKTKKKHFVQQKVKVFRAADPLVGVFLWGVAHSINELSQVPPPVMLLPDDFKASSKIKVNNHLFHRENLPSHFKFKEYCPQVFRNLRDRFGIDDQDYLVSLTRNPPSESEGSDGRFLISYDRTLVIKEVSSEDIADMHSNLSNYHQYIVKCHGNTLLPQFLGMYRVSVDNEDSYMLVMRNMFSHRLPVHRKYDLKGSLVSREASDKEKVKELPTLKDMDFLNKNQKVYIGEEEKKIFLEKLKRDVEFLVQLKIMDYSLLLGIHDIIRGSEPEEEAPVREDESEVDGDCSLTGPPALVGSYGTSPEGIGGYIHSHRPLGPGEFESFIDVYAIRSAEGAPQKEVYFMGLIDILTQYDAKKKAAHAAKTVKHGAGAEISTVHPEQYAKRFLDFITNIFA

[5] = molecular target: T3, Serine/threonine-protein kinase NLK (Homo sapiens) (UniProt Q9UBE8); assay: Selectivity interaction (KinomeScan (DiscoverX)) EUB0000618a NLK; conditions: at 10 µM
T3 sequence (whole entry): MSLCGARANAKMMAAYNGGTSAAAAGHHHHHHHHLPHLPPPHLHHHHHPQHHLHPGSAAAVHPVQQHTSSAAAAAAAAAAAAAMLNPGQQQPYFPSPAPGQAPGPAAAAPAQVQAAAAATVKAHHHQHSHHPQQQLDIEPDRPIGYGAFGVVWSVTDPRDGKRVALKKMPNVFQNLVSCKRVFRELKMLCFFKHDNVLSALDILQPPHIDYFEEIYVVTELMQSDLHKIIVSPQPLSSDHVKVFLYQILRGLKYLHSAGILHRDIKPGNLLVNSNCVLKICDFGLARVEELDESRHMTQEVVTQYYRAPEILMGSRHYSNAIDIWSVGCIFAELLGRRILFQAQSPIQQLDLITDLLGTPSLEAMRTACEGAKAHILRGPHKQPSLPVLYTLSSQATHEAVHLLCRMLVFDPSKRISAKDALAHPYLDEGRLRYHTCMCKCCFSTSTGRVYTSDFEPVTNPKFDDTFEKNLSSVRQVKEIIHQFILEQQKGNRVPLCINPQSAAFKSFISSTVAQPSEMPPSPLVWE

[6] = molecular target: Ribosomal protein S6 kinase alpha-5 (Homo sapiens) (UniProt O75582); assay: Selectivity interaction (KinomeScan (DiscoverX)) EUB0001619a RPS6KA5; conditions: at 1 µM
[7] = molecular target: T4, Dual specificity mitogen-activated protein kinase kinase 3 (Homo sapiens) (UniProt P46734); assay: Selectivity interaction (ActivX KiNativ screen (ex vivo kinase selectivity in human PBMCs)) EUB0001619a MAP2K3; format: cell-based; conditions: PBMC, at 1 µM
T4 sequence (whole entry): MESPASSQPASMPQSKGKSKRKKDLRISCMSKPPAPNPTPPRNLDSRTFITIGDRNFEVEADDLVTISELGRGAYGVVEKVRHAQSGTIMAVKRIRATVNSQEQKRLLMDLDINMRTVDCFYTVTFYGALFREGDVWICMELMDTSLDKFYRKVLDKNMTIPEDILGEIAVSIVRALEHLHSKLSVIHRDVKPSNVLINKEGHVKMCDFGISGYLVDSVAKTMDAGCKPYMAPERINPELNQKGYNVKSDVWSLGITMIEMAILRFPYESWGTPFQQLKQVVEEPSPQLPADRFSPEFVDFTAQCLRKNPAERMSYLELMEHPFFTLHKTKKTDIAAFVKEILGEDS

[8] = molecular target: T5, Activin receptor type-1 (Homo sapiens) (UniProt Q04771); assay: Selectivity interaction (KinomeScan (DiscoverX)) EUB0000607a ACVR1; conditions: at 10 µM
T5 sequence (whole entry): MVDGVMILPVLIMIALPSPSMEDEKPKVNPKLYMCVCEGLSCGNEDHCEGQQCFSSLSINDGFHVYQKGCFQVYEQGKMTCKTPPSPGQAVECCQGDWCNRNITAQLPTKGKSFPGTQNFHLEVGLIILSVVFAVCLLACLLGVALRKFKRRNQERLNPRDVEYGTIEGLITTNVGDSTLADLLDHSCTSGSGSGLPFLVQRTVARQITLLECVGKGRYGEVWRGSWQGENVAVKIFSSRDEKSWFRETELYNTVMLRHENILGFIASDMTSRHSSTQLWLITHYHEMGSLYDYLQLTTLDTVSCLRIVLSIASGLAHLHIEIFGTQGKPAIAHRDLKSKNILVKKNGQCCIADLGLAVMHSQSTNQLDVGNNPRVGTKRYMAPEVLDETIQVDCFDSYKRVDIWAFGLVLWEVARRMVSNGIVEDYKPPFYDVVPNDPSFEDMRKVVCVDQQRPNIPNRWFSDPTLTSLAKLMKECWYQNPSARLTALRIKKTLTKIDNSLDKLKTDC

Sequence of Death-associated protein kinase 1 (P53355 whole entry, looked up): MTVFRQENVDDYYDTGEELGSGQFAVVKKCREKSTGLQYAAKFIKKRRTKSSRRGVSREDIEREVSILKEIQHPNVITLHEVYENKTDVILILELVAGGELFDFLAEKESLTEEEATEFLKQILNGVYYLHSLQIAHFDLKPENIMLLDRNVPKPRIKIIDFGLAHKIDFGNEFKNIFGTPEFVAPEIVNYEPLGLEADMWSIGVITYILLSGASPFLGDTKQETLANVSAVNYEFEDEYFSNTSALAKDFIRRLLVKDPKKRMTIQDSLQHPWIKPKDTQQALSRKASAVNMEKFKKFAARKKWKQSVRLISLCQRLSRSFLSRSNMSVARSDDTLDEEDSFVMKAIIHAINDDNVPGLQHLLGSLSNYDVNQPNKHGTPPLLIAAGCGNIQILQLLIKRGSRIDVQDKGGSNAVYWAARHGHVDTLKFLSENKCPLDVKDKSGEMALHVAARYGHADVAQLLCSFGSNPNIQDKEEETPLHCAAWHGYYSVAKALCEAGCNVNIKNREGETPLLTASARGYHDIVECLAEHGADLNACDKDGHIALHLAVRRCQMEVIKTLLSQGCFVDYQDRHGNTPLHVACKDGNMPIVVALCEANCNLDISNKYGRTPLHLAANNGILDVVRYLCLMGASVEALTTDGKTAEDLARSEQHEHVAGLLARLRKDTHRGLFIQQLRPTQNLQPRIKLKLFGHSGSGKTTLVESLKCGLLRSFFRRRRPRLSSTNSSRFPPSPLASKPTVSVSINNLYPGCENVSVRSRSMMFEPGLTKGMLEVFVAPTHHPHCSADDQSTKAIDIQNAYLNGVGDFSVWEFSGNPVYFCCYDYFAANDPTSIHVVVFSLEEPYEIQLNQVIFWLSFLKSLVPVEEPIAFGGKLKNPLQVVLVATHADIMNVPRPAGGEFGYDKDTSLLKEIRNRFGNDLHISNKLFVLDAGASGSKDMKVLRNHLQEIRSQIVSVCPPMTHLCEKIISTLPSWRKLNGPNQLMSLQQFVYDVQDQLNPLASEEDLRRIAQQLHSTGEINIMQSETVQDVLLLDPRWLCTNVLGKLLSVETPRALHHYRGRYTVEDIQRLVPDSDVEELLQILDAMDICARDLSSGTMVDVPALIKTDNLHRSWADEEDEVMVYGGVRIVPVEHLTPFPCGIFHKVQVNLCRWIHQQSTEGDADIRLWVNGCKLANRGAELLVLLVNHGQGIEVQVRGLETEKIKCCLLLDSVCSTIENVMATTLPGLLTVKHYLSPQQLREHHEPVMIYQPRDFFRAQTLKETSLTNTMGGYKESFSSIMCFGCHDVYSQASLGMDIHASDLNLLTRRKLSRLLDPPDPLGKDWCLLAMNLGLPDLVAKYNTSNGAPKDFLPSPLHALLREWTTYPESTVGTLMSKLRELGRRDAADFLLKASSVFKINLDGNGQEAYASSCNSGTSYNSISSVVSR
Sequence of Ribosomal protein S6 kinase alpha-5 (Homo sapiens) (O75582 whole entry, looked up): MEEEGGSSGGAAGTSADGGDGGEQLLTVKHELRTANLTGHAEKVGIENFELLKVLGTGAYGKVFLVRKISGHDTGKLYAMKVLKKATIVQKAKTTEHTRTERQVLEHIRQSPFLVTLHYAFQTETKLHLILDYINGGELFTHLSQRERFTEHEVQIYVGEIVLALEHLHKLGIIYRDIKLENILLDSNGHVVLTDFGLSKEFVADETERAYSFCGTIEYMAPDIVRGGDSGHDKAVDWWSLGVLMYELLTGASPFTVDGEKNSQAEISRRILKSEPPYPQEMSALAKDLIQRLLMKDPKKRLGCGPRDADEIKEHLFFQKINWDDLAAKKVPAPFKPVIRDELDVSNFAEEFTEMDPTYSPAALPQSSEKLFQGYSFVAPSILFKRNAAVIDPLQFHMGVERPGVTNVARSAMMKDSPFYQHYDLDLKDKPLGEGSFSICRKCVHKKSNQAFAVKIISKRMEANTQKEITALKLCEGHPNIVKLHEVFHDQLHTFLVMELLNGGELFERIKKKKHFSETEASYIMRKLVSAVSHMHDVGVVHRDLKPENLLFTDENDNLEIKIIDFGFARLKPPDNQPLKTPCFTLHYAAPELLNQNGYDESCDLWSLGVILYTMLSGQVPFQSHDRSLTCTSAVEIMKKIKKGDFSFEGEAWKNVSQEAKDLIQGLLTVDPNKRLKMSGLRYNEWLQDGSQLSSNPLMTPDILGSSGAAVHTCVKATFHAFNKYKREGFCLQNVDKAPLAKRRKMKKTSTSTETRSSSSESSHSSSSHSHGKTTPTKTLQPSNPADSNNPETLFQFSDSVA
Sequence of Serine/threonine-protein kinase MARK2 (Homo sapiens) (Q7KZI7 whole entry): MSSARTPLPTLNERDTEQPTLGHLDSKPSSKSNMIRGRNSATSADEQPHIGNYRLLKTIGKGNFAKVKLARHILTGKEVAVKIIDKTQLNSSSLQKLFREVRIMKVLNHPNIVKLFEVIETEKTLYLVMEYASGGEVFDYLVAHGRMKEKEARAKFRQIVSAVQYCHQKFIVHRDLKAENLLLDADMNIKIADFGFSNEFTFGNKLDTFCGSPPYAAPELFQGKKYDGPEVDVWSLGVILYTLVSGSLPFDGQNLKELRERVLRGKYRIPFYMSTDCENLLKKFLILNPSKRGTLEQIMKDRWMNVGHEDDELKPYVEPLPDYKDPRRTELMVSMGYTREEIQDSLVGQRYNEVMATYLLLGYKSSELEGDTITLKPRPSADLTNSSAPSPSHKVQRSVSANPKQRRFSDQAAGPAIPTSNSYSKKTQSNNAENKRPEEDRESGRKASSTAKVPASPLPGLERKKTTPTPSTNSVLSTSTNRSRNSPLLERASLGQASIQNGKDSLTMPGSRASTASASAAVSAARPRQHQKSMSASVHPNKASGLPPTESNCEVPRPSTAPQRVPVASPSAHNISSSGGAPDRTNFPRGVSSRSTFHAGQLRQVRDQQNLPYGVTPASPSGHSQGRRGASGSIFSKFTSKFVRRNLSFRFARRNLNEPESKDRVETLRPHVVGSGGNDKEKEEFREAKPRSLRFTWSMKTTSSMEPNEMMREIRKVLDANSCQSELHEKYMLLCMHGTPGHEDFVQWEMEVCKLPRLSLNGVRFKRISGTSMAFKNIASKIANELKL

COc1cc(N(C)c2ccnc3ccc(C(F)(F)F)cc23)cc(OC)c1OC
% binding [1]: 94%

Nc1cnc(N2CCc3cc(S(=O)(=O)Nc4c(F)cc(Cl)cc4F)cc(N4CCCC4=O)c32)nc1 [TP-020n]
% of control [2]: 100%
% of control [3]: 74%

CC[C@@H]1[C@H](F)C(=O)N[C@@H]1COc1nccc2cc(C(N)=O)c(OC)cc12 [ZIMLOVISERTIB]
% of inhibition ([4]; at 0.01 µM): 6.3%
% of inhibition ([4]; at 0.04 µM): 19.8%
% of inhibition ([4]; at 0.2 µM): 55.9%
% of inhibition ([4]; at 1 µM): 83.6%
% of inhibition ([4]; at 5 µM): 93.9%

O[C@H]1CC[C@H](Nc2ncc3nc(Nc4c(F)cc(F)cc4F)n([C@H]4CCOC4)c3n2)CC1
% of control [5]: 5.2%

N#Cc1cccc(-c2c[nH]c3ncnc(N4CCOCC4)c23)c1
% of control [6]: 100%
% of inhibition [7]: 6%

CNC(=O)Nc1ccc(-c2nc(N3CC4CCC(C3)O4)c3cnn(C4CCC5(CC4)OCCO5)c3n2)cc1
% of control [8]: 90%
